Laboratory results: patent US8163909B2, “Substituted hydroxyethyl amine compounds as beta-secretase modulators and methods of use” (Amgen Inc., priority 2007, dated 2012)
Read-outs that look alike come from different tables or passages of the source.

How the values were obtained:
[1] = target: Beta Secretase enzyme (BACE) (Homo sapiens, UniProt P56817); experiment: In vitro enzymatic BACE FRET (fluorescence resonance energy transfer) assay; type: biochemical;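 also: fluorescence read after 1 h with 50 nM quenched peptide substrate spanning the BACE cleavage site, in pH 4.2 acetate buffer containing 10% DMSO and nonionic detergent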
[2] = target: CYP3A4 (CYP3A) (Homo sapiens, UniProt P08684); experiment: in vitro; details: microsomes, pH 7.4;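 also: inhibition of CYP3A-mediated 1-hydroxymidazolam formation after 10 min incubation with NADPH, quantified by HPLC MS relative to metabolite produced without test compound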
[3] = test system: Aβ40 in conditioned medium of cells stably expressing Amyloid Precursor Protein (APP); experiment: In vitro BACE cell-based assay (Aβ40 in conditioned medium, sandwich ELISA); details: Homo sapiens;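 also: compounds added as a dilution series, secreted peptide quantified by europium time-resolved fluorescence readout, potency fitted from percent of control versus compound concentration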
[4] = Microsomal stability assay, human liver microsomes;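 also: pooled human liver microsomes at 0.25 mg/mL with 1 µM compound and NADPH at 37 °C, pH 7.4, for 30 min, unchanged parent quantified by LC-MS/MS against the 0 min sample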
[5] = Microsomal stability assay, rat liver microsomes;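 also: rat liver microsomes (0.25 mg/mL) with about 1 µM compound plus 1 mM NADPH, pH 7.4, 37 °C for 30 min, parent left measured by LC-MS/MS against 0 min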
[6] = target: CYP2D6 (Homo sapiens, UniProt P10635); experiment: CYP2D6 inhibition assay (bufuralol, pooled human liver microsomes)
[7] = BACE enzyme assay IC50, read-out: BACE1 FRET assay
[8] = HEK293, HEK cell-based assay IC50, read-out: HEK cell assay
[9] = 2D6 IC50 (uM), CYP2D6 inhibition
[10] = read-out: BACE1 FRET assay (IC50)
[11] = HEK293, HEK cells, read-out: HEK cell assay (IC50)
[12] = BACE enzyme assay, read-out: BACE1 FRET assay
[13] = HEK293, HEK cells, read-out: HEK cell assay
[14] = 2D6 IC50 (uM), CYP enzyme inhibition
[15] = BACE enzyme assay, IC50's in uM, read-out: BACE1 FRET assay
[16] = HEK293, HEK cell-based assay, IC50's in uM, read-out: HEK cell assay
[17] = Table 2, read-out: BACE1 FRET assay
[18] = HEK293, Table 2, HEK cells, read-out: HEK cell assay
[19] = 2D6 IC50, CYP enzyme inhibition

Sequence of CYP3A4 (CYP3A) (P08684 2-503): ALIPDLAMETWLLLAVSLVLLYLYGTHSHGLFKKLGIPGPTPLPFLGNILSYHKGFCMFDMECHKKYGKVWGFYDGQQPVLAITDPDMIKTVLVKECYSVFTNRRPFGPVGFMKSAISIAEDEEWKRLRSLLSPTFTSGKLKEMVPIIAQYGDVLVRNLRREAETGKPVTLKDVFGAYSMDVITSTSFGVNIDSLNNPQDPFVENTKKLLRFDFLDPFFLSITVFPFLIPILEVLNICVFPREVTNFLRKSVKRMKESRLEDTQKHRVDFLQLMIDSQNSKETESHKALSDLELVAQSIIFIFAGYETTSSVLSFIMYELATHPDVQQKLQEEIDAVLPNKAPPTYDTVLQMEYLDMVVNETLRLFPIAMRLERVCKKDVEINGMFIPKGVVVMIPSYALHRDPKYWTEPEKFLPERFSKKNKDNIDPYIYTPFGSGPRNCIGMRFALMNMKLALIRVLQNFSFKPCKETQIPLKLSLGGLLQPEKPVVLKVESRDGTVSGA
Sequence of Beta Secretase enzyme (BACE) (P56817 46-501): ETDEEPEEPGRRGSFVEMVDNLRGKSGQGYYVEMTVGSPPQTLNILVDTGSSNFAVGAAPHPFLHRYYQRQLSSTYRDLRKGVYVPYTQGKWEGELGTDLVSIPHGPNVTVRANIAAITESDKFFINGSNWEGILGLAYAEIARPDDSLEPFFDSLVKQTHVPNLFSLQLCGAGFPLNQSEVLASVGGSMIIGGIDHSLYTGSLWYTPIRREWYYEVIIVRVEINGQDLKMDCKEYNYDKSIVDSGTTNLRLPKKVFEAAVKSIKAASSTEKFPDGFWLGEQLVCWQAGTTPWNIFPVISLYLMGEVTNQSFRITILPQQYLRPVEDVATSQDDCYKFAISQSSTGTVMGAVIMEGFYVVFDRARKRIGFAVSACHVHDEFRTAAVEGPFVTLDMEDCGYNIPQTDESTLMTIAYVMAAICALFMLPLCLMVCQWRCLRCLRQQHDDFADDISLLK
Sequence of CYP2D6 (P10635 whole entry): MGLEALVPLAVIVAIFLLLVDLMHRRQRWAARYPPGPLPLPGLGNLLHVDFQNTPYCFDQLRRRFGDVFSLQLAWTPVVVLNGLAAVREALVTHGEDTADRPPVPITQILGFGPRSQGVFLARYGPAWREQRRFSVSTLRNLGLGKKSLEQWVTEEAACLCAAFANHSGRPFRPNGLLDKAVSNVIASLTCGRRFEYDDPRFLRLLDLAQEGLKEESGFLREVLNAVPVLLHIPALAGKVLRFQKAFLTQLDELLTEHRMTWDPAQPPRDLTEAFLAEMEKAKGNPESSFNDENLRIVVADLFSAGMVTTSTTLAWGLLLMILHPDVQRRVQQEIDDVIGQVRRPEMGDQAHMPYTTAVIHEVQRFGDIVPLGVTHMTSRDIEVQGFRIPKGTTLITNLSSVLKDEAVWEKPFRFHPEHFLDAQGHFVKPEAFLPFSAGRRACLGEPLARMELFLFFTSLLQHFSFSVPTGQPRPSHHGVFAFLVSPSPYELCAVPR

SMILES	IC50 [2] [nM]	HLM ([4]; human liver microsomes) [µL/min/mg]	RLM ([5]; rat liver microsomes) [µL/min/mg]	HLM ([4]; human liver microsomal data) [µL/min/mg]	RLM ([5]; rat liver microsomal data) [µL/min/mg]	IC50 [6, 14] [µM]	further results
COCC(=O)N[C@@H](Cc1ccc(F)cc1)[C@H](O)CN[C@H]1CC(C)(C)Oc2c1cc(Br)c1c2OCO1 [compound 745]	500	179	177	–	–	–	IC50 [1, 7]: 5.73 µM; IC50 [3, 8]: 0.229 µM; IC50 [6, 9]: 3.1 µM
COCC(=O)N[C@@H](Cc1cccc(F)c1)[C@H](O)CN[C@H]1CC2(CCC2)Oc2c1cc(CC(C)(C)F)cc2-n1ccnc1 [compound 588]	100	25	74	–	–	–	IC50 [1, 10]: 0.027 µM; IC50 [3, 11]: 0.006 µM; IC50 ([6]; 2D6 IC50, CYP2D6 inhibition): 0.6 µM
CC(=O)N[C@@H](Cc1cc(F)cc(F)c1)[C@H](O)CN[C@H]1CC2(CCC2)Oc2c1cc(CC(C)(C)C)nc2-c1ccncc1 [compound 584]	100	18	50	–	–	–	IC50 [1, 10]: 0.011 µM; IC50 [3, 11]: 0.013 µM; IC50 ([6]; 2D6 IC50, CYP2D6 inhibition): 14.5 µM
COCC(=O)N[C@@H](Cc1cc(F)cc(F)c1)[C@H](O)CN[C@H]1CC2(CCC2)Oc2c(-c3ccncc3)cc(CC(C)C)cc21 [compound 586]	100	31	65	–	–	–	IC50 [1, 10]: 0.009 µM; IC50 [3, 11]: 0.006 µM; IC50 ([6]; 2D6 IC50, CYP2D6 inhibition): 1.3 µM
CC(C)Cc1cnc2c(c1)[C@@H](NC[C@@H](O)[C@H](Cc1ccc3c(c1)OCO3)NC(=O)[C@@H]1CCCO1)CC1(CCC1)O2 [compound 548]	300	–	–	57	184	3.7	IC50 [1, 12]: 0.074 µM; IC50 [3, 13]: 0.623 µM
CO[C@H](C)C(=O)N[C@@H](Cc1ccc(F)cc1)[C@H](O)CN[C@H]1CC2(CCC2)Oc2c1cc(CC(C)(C)C)nc2-c1ccncc1 [compound 527]	100	–	–	33	108	0.6	IC50 [1, 12]: 0.222 µM; IC50 [3, 13]: 1.95 µM
CCOCC(=O)N[C@@H](Cc1cccc(F)c1)[C@H](O)CN[C@H]1CC2(CCC2)Oc2ncc(CC(C)(C)C)cc21 [compound 660]	200	829	775	–	–	–	IC50 [1, 10]: 0.003 µM; IC50 [3, 11]: 0.018 µM; IC50 ([6]; 2D6 IC50, CYP2D6 inhibition): 1.9 µM
CO[C@H](C)C(=O)N[C@@H](Cc1cncs1)[C@H](O)CN[C@H]1CC2(CCC2)Oc2c1cc(CC(C)(C)C)nc2-c1ccccn1 [compound 781]	400	–	–	104	82	≥ 27	IC50 [1, 15]: 0.071 µM; IC50 [3, 16]: 0.206 µM
CN1CCO[C@H](C(=O)N[C@@H](Cc2ccc(F)cc2)[C@H](O)CN[C@H]2CC3(CCC3)Oc3ncc(CC(C)(C)C)cc32)C1 [compound 744]	900	333	266	–	–	–	IC50 [1, 7]: 0.372 µM; IC50 [3, 8]: 0.075 µM; IC50 [6, 9]: 11.2 µM
COCC(=O)N[C@@H](Cc1ccc2c(c1)OCO2)[C@H](O)CN[C@H]1CC2(CCC2)Oc2ncc(CCC(F)(F)F)cc21 [compound 445]	200	–	–	24	121	–	IC50 [1, 17]: 0.754 µM; IC50 [3, 18]: 0.621 µM; IC50 [6, 19]: 4.1 µM
COCC(=O)N[C@@H](Cc1cc(F)cc(-c2ncc(C)s2)c1)[C@H](O)CN[C@H]1CC2(CCC2)Oc2ncc(CC(C)C)cc21 [compound 732]	200	551	399	–	–	–	IC50 [1, 7]: 0.018 µM; IC50 [3, 8]: 0.083 µM; IC50 [6, 9]: 2.5 µM
CO[C@H](C)C(=O)N[C@@H](Cc1ccc2c(c1)OCO2)[C@H](O)CN[C@H]1CC2(CCC2)C(=O)c2ncc(CC(C)(C)C)cc21 [compound 626]	500	153	260	–	–	–	IC50 [1, 10]: 0.133 µM; IC50 [3, 11]: 0.108 µM; IC50 ([6]; 2D6 IC50, CYP2D6 inhibition): 14.4 µM
CO[C@H](C)C(=O)N[C@@H](Cc1cc(F)cc(Cl)c1)[C@H](O)CN[C@H]1CC2(CCC2)Oc2cnc(CC(C)(C)F)cc21 [compound 719]	400	515	775	–	–	–	IC50 [1, 7]: 0.024 µM; IC50 [3, 8]: 0.13 µM; IC50 [6, 9]: 2.4 µM
CC(C)(C)Cc1cnc2c(c1)[C@@H](NC[C@@H](O)[C@H](Cc1ccc(F)cc1)NC(=O)[C@H]1CN(Cc3ccccc3)CCO1)CC1(CCC1)O2 [compound 717]	200	775	298	–	–	–	IC50 [1, 7]: 0.013 µM; IC50 [3, 8]: 0.011 µM; IC50 [6, 9]: 3.6 µM
CC(C)Cc1cnc2c(c1)[C@@H](NC[C@H](O)[C@@H](Cc1cccc(-c3nccs3)c1)NC(=O)[C@H]1CCCO1)CC1(CCC1)O2 [compound 795]	200	–	–	127	64	0.6	IC50 [1, 15]: 0.286 µM; IC50 [3, 16]: 0.206 µM
CO[C@H](C)C(=O)N[C@@H](Cc1ccncc1)[C@H](O)CN[C@H]1CC2(CCC2)Oc2ncc(CC(C)(C)C)cc21 [compound 534]	500	–	–	178	113	3.6	IC50 [1, 12]: 0.023 µM; IC50 [3, 13]: 0.014 µM
CC(C)(C)Cc1cnc2c(c1)[C@@H](NC[C@@H](O)[C@H](Cc1ccc3c(c1)OCO3)NC(=O)[C@@H]1CCO1)CC1(CCC1)O2 [compound 525]	200	–	–	32	101	3.1	IC50 [1, 12]: 0.021 µM; IC50 [3, 13]: 0.019 µM
COCC(=O)N[C@@H](Cc1ccc2c(c1)OCO2)[C@H](O)CN[C@H]1CC2(CCC2)Oc2ncc(CC(F)(F)F)cc21 [compound 518]	300	–	–	26	82	2.7	IC50 [1, 12]: 0.131 µM; IC50 [3, 13]: 0.34 µM
CC(=S)N[C@@H](Cc1cccc(-c2nccs2)c1)[C@H](O)CN[C@H]1CC2(CCC2)Oc2ncc(CC(C)(C)C)cc21 [compound 793]	100	–	–	99	60	0.4	IC50 [1, 15]: 0.03 µM; IC50 [3, 16]: 0.067 µM
CC(C)(C)Cc1cnc2c(c1)[C@@H](NC[C@@H](O)[C@H](Cc1ccc(F)cc1)NC=O)CC1(CCC1)O2 [compound 540]	1200	–	–	264	347	2.3	IC50 [1, 12]: 0.014 µM; IC50 [3, 13]: 0.074 µM
COC(OC)C(=O)N[C@@H](Cc1cc(F)cc(-c2nccs2)c1)[C@H](O)CN[C@H]1CC2(CCC2)Oc2ncc(CC(C)(C)C)cc21 [compound 871]	200	–	–	59	73	–	IC50 [1, 15]: 0.007 µM; IC50 ([3]; HEK293, cell-based assay, HEK cells, IC50's in uM, read-out: HEK cell assay): 0.01 µM; IC50 [6, 19]: 0.7 µM
COCC(=O)N[C@@H](Cc1cc(F)cc(F)c1)[C@H](O)CN[C@H]1CC2(CCC2)Oc2c(-c3cncs3)cc(CC(C)C)cc21 [compound 490]	200	–	–	344	249	7.5	IC50 [1, 12]: 0.003 µM; IC50 [3, 13]: 0.029 µM
COCC(=O)N[C@@H](Cc1cc(F)cc(F)c1)[C@H](O)CN[C@H]1CC2(CCC2)Oc2c(-c3ccncc3)cc(C3CC3)cc21 [compound 783]	300	–	–	73	107	0.3	IC50 [1, 15]: 0.031 µM; IC50 [3, 16]: 0.029 µM
COC(OC)C(=O)N[C@@H](Cc1ccc2c(c1)OCO2)[C@H](O)CN[C@H]1CC2(CCC2)Oc2ncc(CC(C)C)cc21 [compound 754, N-((1S,2R)-1-(1,3-benzodioxol-5-ylmethyl)-2-hydroxy-3-(((4′S)-6′-(2-methylpropyl)-3′,4′-dihydrospiro[cyclobutane-1,2′-pyrano[2,3-b]pyridin]-4′-yl)amino)propyl)-2,2-dimethoxyacetamide]	100	29	86	–	–	–	IC50 [1, 7]: 0.037 µM; IC50 [3, 8]: 0.054 µM; IC50 [6, 9]: 3.5 µM
COCC(=O)N[C@@H](Cc1ccnc(OC)c1)[C@H](O)CN[C@H]1CC2(CCC2)Oc2ncc(CC(C)(C)C)cc21 [compound 474]	2000	–	–	172	174	–	IC50 [1, 17]: 0.013 µM; IC50 [3, 18]: 0.022 µM; IC50 [6, 19]: 6.5 µM
COC(OC)C(=O)N[C@@H](Cc1cc(F)cc(-c2nccs2)c1)[C@H](O)CN[C@H]1CC2(CCC2)Oc2ncc(CC(C)(F)F)cc21 [compound 818]	600	–	–	41	46	2.3	IC50 [1, 15]: 0.013 µM; IC50 [3, 16]: 0.059 µM
COCC(=O)N[C@@H](Cc1cccc(F)c1)[C@H](O)CN[C@H]1CC2(CCC2)Oc2c(-c3ccncc3)cc(Cl)cc21 [compound 550]	200	–	–	338	315	0.5	IC50 [1, 12]: 0.042 µM; IC50 [3, 13]: 0.474 µM
